Measured values from patent publication US20180346446A1, “IRE1 SMALL MOLECULE INHIBITORS” (QUENTIS THERAPEUTICS, INC., priority 2017, published 2018).

Key:
IRE1a [1] = target: T1, IRE1a (Homo sapiens, UniProt O75460); experiment: IRE1a Endoribonuclease Nanoluciferase Assay (XBP1 luciferase reporter in 293T cells); type: cell-based; settings: 293T cells transfected with XBP1 luciferase reporter, ER stressors +/- inhibitors
Protocol: Compounds disclosed herein were assessed for disruption of IRE1 signaling using a IRE1a Endoribonuclease Nanoluciferase Assay. Briefly, 2.5×10^6 293T cells were seeded in a 10 cm^2 tissue culture plate. About 24 hours later, the cells were transfected with Effectene. In a 15 mL Tube, the following was added: 2 ug XBP1 luciferase reporter plasmid (PGK-Luc2-P2A-XBP1u-Nanoluciferase-PEST); 300 ul EC buffer; and 16 ul Enhancer, followed by incubation at room temp for 5 minutes. Next, 60 ul Effectene (Qiagen 301427) was added, followed by incubation at room temperature for 10 minutes. 2.6 mL cDMEM media was added. Old media was aspirated from the cells, followed by addition of 7 mL fresh media. Full transfection mixture was added dropwise to cells. Cells were incubated for 6 hours, followed by trypsinization, centrifugation and resuspension in 11 mL media. 100 uL of cells were plated per a well in a 96 well plate. A day later, ER stressors of choice +/− inhibitors were added. To harvest, media was aspirated from cells completely, then 50 uL 1× passive lysis buffer (Promega: E1941) was added per well and put on shaker (300 rpm) for 30 minutes at room temperature. Cells were centrifuged, and 15 uL sample per well was added to a new, opaque white 384 well plate (Corning 3570). 15 uL OneGlo (nanoluciferase kit, Promega N1630) was added. Plates were spun down, placed on shaker (300 rpm) for 10 minutes. Plates were read on luminometer, 1000 ms integration time per well. 15 uL Stop and Glo (nanoluciferase kit) was added. Plates were spun down, placed on shaker (300 rpm) for 10 minutes. Plates were read on luminometer, 1000 ms second integration time per well. Recordings are provided below in Table 4.

IRE1a [2] = target: T1, IRE1a; experiment: In vitro FRET assay (XBP1 RNA probe cleavage by IRE1a); type: biochemical; set-up: purchased SignalChem; settings: 2 nM IRE1a protein
Protocol: In vitro FRET assay was performed to evaluate the ability of select compounds to inhibit IRE1, the results of which are summarized in Table 3. To perform the in vitro FRET assay, 1× complete assay buffer (CAB; […], 50 mM sodium citrate pH 7.15, ImM magnesium acetate, 0.02% tween 20) was used to dilute SignalChem IRE1a protein to a final concentration of 2 nM. Selected compounds were serially diluted with DMSO in a non-binding black 384-well plate for a total of 15 ul in each well. 2 ul of the serially diluted compound or DMSO control were then added to new wells containing 98 ul of 1×CAB, for a total volume of 100 ul, 10 ul of which were then transferred to wells of a new plate. 5 ul of the diluted IRE1a was then added to each well. 5 ul of a […] XBP1 RNA probe was then added to each well. Fluorescence was then read over 30 minutes in kinetic mode (485/515 nm).
Two RNA probes were used, XBP1 wildtype (SEQ ID NO: 2) which is able to be spliced by active IRE1a or XBP1 mutant (SEQ ID NO: 3) which is unable to be spliced. Each probe contained a 5′ 6-FAM modification and a 3′ IOWA Black FQ modification. […]

T1 sequence (O75460 19-977): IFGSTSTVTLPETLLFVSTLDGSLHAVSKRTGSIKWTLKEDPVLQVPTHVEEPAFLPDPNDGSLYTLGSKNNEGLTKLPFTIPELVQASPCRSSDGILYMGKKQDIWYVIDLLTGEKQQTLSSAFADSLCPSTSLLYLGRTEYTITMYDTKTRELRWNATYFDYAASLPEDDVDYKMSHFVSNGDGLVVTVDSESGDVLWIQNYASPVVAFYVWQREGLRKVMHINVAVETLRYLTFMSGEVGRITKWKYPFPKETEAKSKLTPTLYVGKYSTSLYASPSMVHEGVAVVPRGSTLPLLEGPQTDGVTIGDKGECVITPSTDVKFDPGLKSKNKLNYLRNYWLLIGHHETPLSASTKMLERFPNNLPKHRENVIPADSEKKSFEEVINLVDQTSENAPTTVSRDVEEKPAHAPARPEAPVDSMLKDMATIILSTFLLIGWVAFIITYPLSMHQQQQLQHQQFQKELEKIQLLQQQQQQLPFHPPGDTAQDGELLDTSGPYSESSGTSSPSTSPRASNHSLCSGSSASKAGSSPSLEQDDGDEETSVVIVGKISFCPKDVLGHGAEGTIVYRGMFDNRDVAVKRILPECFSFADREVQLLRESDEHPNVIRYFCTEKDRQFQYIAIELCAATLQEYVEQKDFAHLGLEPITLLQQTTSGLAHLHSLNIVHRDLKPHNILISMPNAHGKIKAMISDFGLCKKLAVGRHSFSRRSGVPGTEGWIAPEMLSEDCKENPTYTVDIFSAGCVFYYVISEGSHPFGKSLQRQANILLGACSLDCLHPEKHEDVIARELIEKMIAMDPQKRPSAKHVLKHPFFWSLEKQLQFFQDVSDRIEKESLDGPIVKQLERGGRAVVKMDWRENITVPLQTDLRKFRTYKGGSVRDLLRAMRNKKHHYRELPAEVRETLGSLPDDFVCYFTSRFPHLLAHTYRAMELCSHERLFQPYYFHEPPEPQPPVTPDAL

| Molecule | EC50 (IRE1a [1]) [nM] | IC50 (IRE1a [2]) [nM] |
| --- | --- | --- |
| CCc1cc(-c2ccc(NS(=O)(=O)c3ccccc3Cl)c(F)c2)cc2cnc(N[C@H]3CC4C[C@@H](N)CC4C3)nc12 (stereo partly shown) [84; Formic Acid] | 5 to 50 | ≤ 5 |
| N[C@H]1CC[C@H](Nc2ncc3cc(-c4c(F)cc(NS(=O)(=O)c5ccccc5Cl)cc4F)ccc3n2)CC1 [62; Formic Acid] | 5 to 50 | ≤ 5 |
| N[C@H]1CC[C@H](Nc2ncc3cc(-c4ccc(NS(=O)(=O)c5ccccc5Cl)cc4F)ccc3n2)CC1 [48; Formic Acid] | 5 to 50 | ≤ 5 |
| CCc1cc2nc(N[C@H]3CC[C@H](N)CC3)ncc2cc1-c1ccc(NS(=O)(=O)c2ccccc2Cl)nc1OC [110; Formic Acid] | ≤ 5 | ≤ 5 |
| N[C@H]1CC[C@H](Nc2ncc3cc(-c4ccc(NS(=O)(=O)c5ccccc5Cl)cc4)ccc3n2)CC1 [26; Formic Acid] | ≤ 5 | ≤ 5 |
| CCc1cc(-c2ccc(NS(=O)(=O)c3ccc(Cl)cc3)cc2C)cc2cnc(N[C@H]3CC[C@H](N)CC3)nc12 [Compound 12] | – | > 100 |
| CCc1cc(-c2ccc(NS(=O)(=O)c3ccccc3Cl)c(F)c2)cc2cnc(N[C@@H]3CCC[C@H](N)C3)nc12 [72; Formic Acid] | > 100 | ≤ 5 |
| CCc1cc(-c2ccc(NS(=O)(=O)c3ccccc3Cl)nc2OC)cc2cnc(NC3CCC(C)(N(C)C)CC3)nc12 (stereo not shown) [143; Formic Acid] | – | 5 to 50 |
| CCc1cc(-c2ccc(NS(=O)(=O)c3ccccc3Cl)c(F)c2)cc2cnc(N[C@@H]3CC[C@@H](N)[C@H](C)C3)nc12 [74; Formic Acid] | ≤ 5 | ≤ 5 |
| N-(4-(2-(((1r,4r)-4-aminocyclohexyl)amino)quinazolin-6-yl)-3-methylphenyl)-3-chlorobenzenesulfonamide [Compound 11] | > 100 | ≤ 5 |
| CCc1cc(-c2ccc(NS(=O)(=O)c3cc(Cl)ccc3Cl)cc2C)cc2cnc(N[C@H]3CC[C@H](N)CC3)nc12 [Compound 9, N-(4-(2-(((1r,4r)-4-aminocyclohexyl)amino)-8-ethylquinazolin-6-yl)-3-methylphenyl)-2,5-dichlorobenzenesulfonamide] | – | ≤ 5 |
| COc1nc(NS(=O)(=O)c2ccccc2Cl)ccc1-c1cc(C)c2nc(N[C@H]3CC[C@H](N)CC3)ncc2c1 [115; Formic Acid] | ≤ 5 | ≤ 5 |
| CCc1cc(-c2ccc(NS(=O)(=O)c3ccccc3Cl)nc2OC(F)(F)F)cc2cnc(N[C@H]3CC[C@H](N)CC3)nc12 [107; Formic Acid] | ≤ 5 | ≤ 5 |
| N[C@H]1CC[C@@H](Nc2ncc3cc(-c4ccc(NS(=O)(=O)c5ccccc5Cl)c(F)c4)ccc3n2)C1 [80; Formic Acid] | > 100 | ≤ 5 |
| COc1nc(NS(=O)(=O)c2ccccc2Cl)ccc1-c1cc2cnc(N[C@H]3CC[C@H](N)CC3)nc2cc1C [104; Formic Acid] | 50 to 100 | ≤ 5 |
| CCc1cc(-n2cc(NS(=O)(=O)c3ccccc3Cl)cn2)cc2cnc(N[C@H]3CC[C@H](N)CC3)nc12 [43; Formic Acid] | – | ≤ 5 |
| CCc1cc(-c2cc(F)c(NS(=O)(=O)c3ccccc3Cl)cc2OC)cc2cnc(N[C@H]3CC[C@H](N)CC3)nc12 [42; Formic Acid] | – | ≤ 5 |
| Cc1cc(N(C)S(=O)(=O)c2ccccc2Cl)ccc1-c1cc(O)c2nc(N[C@H]3CC[C@H](N)CC3)ncc2c1 [30; Formic Acid] | – | 50 to 100 |
| CC(C)c1cc(-c2cc(NS(=O)(=O)c3ccccc3Cl)nn2C)cc2cnc(N[C@H]3CC[C@H](N)CC3)nc12 [40; Formic Acid] | – | ≤ 5 |
| CCc1cc(-c2ccc(NS(=O)(=O)c3ccccc3OC)cc2C)cc2cnc(N[C@H]3CC[C@H](N)CC3)nc12 [Compound 13] | – | > 100 |
| COc1nc(NS(=O)(=O)c2ccccc2Cl)ccc1-c1ccc2nc(N[C@H]3CC[C@H](N)CC3)ncc2c1C [114; Formic Acid] | – | 5 to 50 |
| CCc1cc(-c2ccc(NS(=O)(=O)c3ccccc3OC(F)(F)F)cc2C)cc2cnc(N[C@H]3CC[C@H](N)CC3)nc12 [Compound 8, N-(4-(2-(((1r,4r)-4-aminocyclohexyl)amino)-8-ethylquinazolin-6-yl)-3-methylphenyl)-2-(trifluoromethoxy)benzenesulfonamide] | – | 5 to 50 |

| Molecule | EC50 (IRE1a [1]) [nM] | IC50 (IRE1a [2]) [nM] |
| --- | --- | --- |
| CCc1cc(-c2cnc(NS(=O)(=O)c3ccccc3Cl)s2)cc2cnc(N[C@H]3CC[C@H](N)CC3)nc12 [41; Formic Acid] | – | ≤ 5 |
| CCc1cc(-c2ccc(NS(=O)(=O)c3ccccc3Cl)nc2OC)cc2cnc(N[C@H]3CC[C@H](O)CC3)nc12 [101; Formic Acid] | – | 5 to 50 |
| N[C@H]1CC[C@H](Nc2ncc3cc(-c4ccc(NS(=O)(=O)c5ccccc5Cl)nn4)ccc3n2)CC1 [49; Formic Acid] | – | ≤ 5 |
| COc1nc(NS(=O)(=O)c2ccccc2Cl)c(F)cc1-c1cc(C)c2nc(N[C@H]3CC[C@@H](N)CC3)ncc2c1 [146; Formic Acid] | – | ≤ 5 |
| CCc1cc(-c2cc(F)c(NS(=O)(=O)c3ccccc3Cl)c(F)c2)cc2cnc(N[C@H]3CC[C@H](N)CC3)nc12 [63; Formic Acid] | – | ≤ 5 |
| CCc1cc(-c2cc(F)c(NS(=O)(=O)c3ccccc3Cl)nc2OC)cc2cnc(N[C@H]3CC[C@@](C)(N(C)C)CC3)nc12 [144; Formic Acid] | – | 50 to 100 |
| CCc1cc(-c2ccc(N(C)S(=O)(=O)c3ccccc3Cl)cc2C)cc2cnc(N[C@H]3CC[C@H](N)CC3)nc12 [31; Formic Acid] | – | > 100 |
| CCc1cc(-c2ccc(NS(=O)(=O)c3ccccc3Cl)nc2OC)cc2cnc(N[C@H]3CC[C@@H](N)CC3)nc12 [140; Formic Acid] | – | ≤ 5 |
| CCc1cc(-c2sc(NS(=O)(=O)c3ccccc3Cl)nc2C)cc2cnc(N[C@H]3CC[C@H](N)CC3)nc12 [38; Formic Acid] | – | ≤ 5 |
| CCc1cc(-c2cnc(NS(=O)(=O)c3ccccc3Cl)nc2)cc2cnc(N[C@H]3CC[C@H](N)CC3)nc12 [39; Formic Acid] | – | ≤ 5 |
| CCc1cc(-c2ccc(NS(=O)(=O)c3ccccc3)cc2C)cc2cnc(N[C@H]3CC[C@H](N)CC3)nc12 [15; Formic Acid] | – | > 100 |
| CCc1cc(-c2ccc(NS(=O)(=O)c3ccccc3C(F)(F)F)cc2C)cc2cnc(N[C@H]3CC[C@H](N)CC3)nc12 [Compound 7, N-(4-(2-(((1r,4r)-4-aminocyclohexyl)amino)-8-ethylquinazolin-6-yl)-3-methylphenyl)-2-(trifluoromethyl)benzenesulfonamide] | – | 5 to 50 |
| Cc1cc2nc(N[C@H]3CC[C@H](N)CC3)ncc2cc1-c1ccc(NS(=O)(=O)c2ccccc2Cl)nc1C [106; Formic Acid] | – | ≤ 5 |
| COc1cc(-c2cc(NS(=O)(=O)c3ccccc3Cl)nn2C)cc2cnc(N[C@H]3CC[C@H](N)CC3)nc12 [45; Formic Acid] | – | 50 to 100 |
| N[C@H]1CC[C@H](Nc2ncc3cc(-c4ccc(NS(=O)(=O)c5ccccc5Cl)c(F)c4)ccc3n2)CC1 [50; Formic Acid] | – | ≤ 5 |
| CCc1cc(-c2ccc(NS(=O)(=O)c3ccccc3F)cc2C)cc2cnc(N[C@H]3CC[C@H](N)CC3)nc12 [Compound 10, N-(4-(2-(((1r,4r)-4-aminocyclohexyl)amino)-8-ethylquinazolin-6-yl)-3-methylphenyl)-2-fluorobenzenesulfonamide] | – | ≤ 5 |
| CCc1nc(NS(=O)(=O)c2ccccc2Cl)ccc1-c1cc2cnc(N[C@H]3CC[C@H](N)CC3)nc2cc1C [105; Formic Acid] | – | ≤ 5 |
| COc1cc(-c2ccc(NS(=O)(=O)c3ccccc3Cl)cc2C)cc2cnc(N[C@H]3CC[C@H](N)CC3)nc12 [36; Formic Acid] | – | ≤ 5 |
| CCc1cc(-c2ccc(NS(=O)(=O)c3ccccc3Cl)cc2C(F)(F)F)cc2cnc(N[C@H]3CC[C@H](N)CC3)nc12 [14; Formic Acid] | – | > 100 |
| CCc1cc(-c2ccc(NS(=O)(=O)c3ccccc3Cl)cc2Cl)cc2cnc(N[C@H]3CC[C@H](N)CC3)nc12 [17; Formic Acid] | – | > 100 |
| CCc1cc(NS(=O)(=O)c2ccccc2Cl)nnc1-c1cc(CC)c2nc(N[C@H]3CC[C@H](N)CC3)ncc2c1 [96; Formic Acid] | – | ≤ 5 |
